Assay results taken from ChEMBL document CHEMBL5604062, “ASAP - ZIKV NS2B-NS3 protease fluorescence dose response” (2024).
Values joined by “and” are separate entries in the source; they are usually repeats but may differ in a detail not shown here. Equal entries are not always repeated.

Biological target: Nonstructural protein 3 (Zika virus, UniProt A0A024AXB9)
Assay: Functional biochemical assay to identify treatments for viral infectious disease that targets Zika NS2B-NS3 protease. Utilizing a direct enzyme activity measurement method, reading the fluorescence intensity is used to characterize the relative potency of inhibitors as IC50.
Design: species or system PRVABC59

Chain of Nonstructural protein 3 (A0A024AXB9 whole entry): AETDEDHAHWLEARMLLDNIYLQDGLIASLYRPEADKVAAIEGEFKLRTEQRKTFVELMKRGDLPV

| SMILES | IC50 |
| --- | --- |
| C[C@H](CC(=O)O)N(C)C(=O)c1cc(Cl)cc(NC(=O)OCc2ccccc2)c1 | > 99.5 µM |
| C[C@H](CC(=O)O)NC(=O)c1cc(Cl)cc(NC(=O)OCc2ccccc2)c1 | > 99.5 µM |
| CCc1sc(C(=O)Nc2cccc(-c3nnn[nH]3)c2)cc1C | > 99.5 µM |
| O=C(O)CCc1ccc(NC(=O)c2cc(Cl)cc(C3CC3)c2)cc1 | > 99.5 µM |
| CC(C)C[C@H](NC(=O)c1cc(Cl)cc(NC(=O)OCc2ccccc2)c1)c1nnn[nH]1 | > 99.5 µM |
| O=C(Nc1cc(Cl)cc(C(=O)Nc2ccccc2[C@@H]2C[C@H]2C(=O)O)c1)OCc1ccccc1 | > 99.5 µM |
| Cc1c(C(=O)Nc2cccc(-c3nnn[nH]3)c2)sc2ccccc12 | > 99.5 µM |
| O=C(Nc1cc(Cl)cc(C(=O)NC[C@H]2C[C@@H]2C(=O)O)c1)OCc1ccccc1 | > 99.5 µM |
| O=C(Nc1cc(Cl)cc(C(=O)NCc2ccc(-c3nnn[nH]3)cc2)c1)OCc1ccccc1 | 68.3 µM |
| C=CC[C@H](Nc1ccc(-c2nn[nH]n2)cc1)c1cc(Cl)cc(NC(=O)OCc2ccccc2)c1 | 11.3 µM |
| O=C(Nc1cc(Cl)cc([C@H]2CN(Cc3ccccc3)C[C@@H]2c2cccc(-c3nn[nH]n3)c2)c1)OCc1ccccc1 | 6.87 µM |
| CCCNC(=O)[C@H](Nc1cccc(-c2nn[nH]n2)c1)c1cc(Cl)cc(NC(=O)OCc2ccccc2)c1 | 48.5 µM |
| O=C(Nc1cc(Cl)cc(C(=O)N2CCC(c3nn[nH]n3)CC2)c1)OCc1ccccc1 | > 99.5 µM |
| CS(=O)(=O)c1cc(CN)cc([C@@H]2C[C@H]2c2cc(Cl)cc(NC(=O)OCc3ccccc3)c2)c1 | 43.3 µM |
| CCc1[nH]c(-c2ccccc2)cc1C(=O)Nc1cccc(-c2nnn[nH]2)c1 | > 99.5 µM |
| CS(=O)(=O)NC(=O)c1cc(CN)cc(NC(=O)c2cc(Cl)cc(NC(=O)OCc3ccccc3)c2)c1 | 7.05 µM |
| CC(=Cc1cc(Cl)cc(NC(=O)OCc2ccccc2)c1)c1cccc(CN)c1 | 5.26 µM |
| C#C[C@H](Nc1cccc(C(=O)O)c1)c1cc(Cl)cc2[nH]ncc12 | > 99.5 µM |
| CCc1cc(C(=O)Nc2cccc(-c3nnn[nH]3)c2)ccc1Cl | > 99.5 µM |
| C[C@H](NC(=O)c1cc(Cl)cc(NC(=O)OCc2ccccc2)c1)C(=O)O | > 99.5 µM |
| O=C(Nc1ccc(-n2nn[nH]c2=O)cc1)c1cc(Cl)cc(C2CC2)c1 | > 99.5 µM |
| Cc1c(C(=O)Nc2cccc(-c3nnn[nH]3)c2)n[nH]c1-c1ccc(Cl)cc1 | > 99.5 µM |
| COC[C@H](NC(=O)c1cc(Cl)cc(NC(=O)OCc2ccccc2)c1)c1nnn[nH]1 | > 99.5 µM |
| CC(C)[C@H](NC(=O)c1cc(Cl)cc(NC(=O)OCc2ccccc2)c1)C(=O)O | > 99.5 µM |

| SMILES | IC50 |
| --- | --- |
| O=C(Nc1cc(Cl)cc(C(=O)N2CCC[C@H](c3nnn[nH]3)C2)c1)OCc1ccccc1 | > 99.5 µM |
| C=CC[C@H](Nc1cc(Cl)cc(NC(=O)OCc2ccccc2)c1)c1cccc(CN)c1 | 7.69 µM |
| O=C(Nc1cccc(-c2nnn[nH]2)c1)c1ccc(-c2cccnc2)s1 | > 99.5 µM |
| O=C(Nc1cc(Cl)cc(C(=O)Nc2cccc3c2OC[C@H](C(=O)O)C3)c1)OCc1ccccc1 | > 99.5 µM |
| C=CC[C@H](Nc1cccc(C(=O)O)c1)c1cc(Cl)cc2[nH]ncc12 | > 99.5 µM |
| Clc1ccc2[nH]cc(Cc3cccc(-c4nn[nH]n4)c3)c2c1 | > 99.5 µM |
| C=CC[C@H](Nc1cc(Cl)cc(NC(=O)OCc2ccccc2)c1)c1ccc(-c2nn[nH]n2)cc1 | 9.66 µM |
| O=C(Nc1cc(Cl)cc([C@H](C#CCO)Nc2cccc(-c3nn[nH]n3)c2)c1)OCc1ccccc1 | 38.3 µM |
| O=C(Nc1cc(Cl)cc(C(=O)NCC[C@H]2C[C@@H]2C(=O)O)c1)OCc1ccccc1 | > 99.5 µM |
| Cc1c(C(=O)Nc2cc(CCCN)ccc2F)cc(C2CC2)n1C | 69.2 µM |
| Clc1cc(/C=C/c2cccc(-c3nn[nH]n3)c2)c2cn[nH]c2c1 | > 99.5 µM |
| COc1c(C(=O)N(C)C)cc(Cl)cc1S(=O)(=O)Nc1cccc(-c2nnn[nH]2)c1 | > 99.5 µM |
| N#C[C@H](Nc1cccc(-c2nn[nH]n2)c1)c1cc(Cl)cc(NC(=O)OCc2ccccc2)c1 | 24.6 µM and 27.6 µM and 24.8 µM |
| O=C(Nc1ccc2c(c1)CNC2)c1cc(Cl)cc2[nH]ncc12 | < 50 nM (2×) and 139 nM and 164 nM |
| CCCc1sc(C(=O)Nc2cccc(-c3nnn[nH]3)c2)cc1CC | > 99.5 µM |
| C=CC[C@H](Nc1cccc(-c2nn[nH]n2)c1)c1cc(Cl)cc2[nH]ncc12 | > 99.5 µM |
| Cc1c(C(=O)Nc2ccc([C@@H](C)N)cc2)cc(C2CC2)n1C | > 99.5 µM |
| CNC(=O)[C@H](Nc1cccc(-c2nn[nH]n2)c1)c1cc(Cl)cc(NC(=O)OCc2ccccc2)c1 | > 99.5 µM |
| CC[C@H](Cc1nnn[nH]1)c1ccc(NC(=O)c2cc(Cl)cc(-n3cccc3)c2)cc1 | 52.9 µM |
| O=C(O)CCCc1ccc(NC(=O)c2cc(Cl)cc(NC(=O)OCc3ccccc3)c2)cc1 | > 99.5 µM |
| O=C(Nc1cc(Cl)cc(C(=O)Nc2cncc(C(=O)O)c2)c1)OCc1ccccc1 | > 99.5 µM |
| NCCc1ccc([C@H]2C[C@@H]2c2cc(Cl)cc(NC(=O)OCc3ccccc3)c2)cc1 | 2.53 µM |
| CNC(=O)[C@H](Nc1cccc(-c2nn[nH]n2)c1)c1cc(Cl)cc2[nH]ncc12 | 9.2 µM |
| NCc1ccc2nc(-c3cc(Cl)cc(NC(=O)OCc4ccccc4)c3)c(CCCO)cc2c1 | 51.9 µM |

| SMILES | IC50 |
| --- | --- |
| Clc1cc(CCc2cccc(-c3nn[nH]n3)c2)c2cn[nH]c2c1 | > 99.5 µM |
| O=C(Nc1cc(Cl)cc(-c2ccc3[nH]c(C(=O)O)cc3c2)c1)OCc1ccccc1 | 7.58 µM |
| O=C(Nc1ccc(-c2nnn[nH]2)cc1)c1cc(Cl)cc(C2CC2)c1 | > 99.5 µM |
| O=C(O)Cn1ncc2cc(-c3cc(Cl)cc(NC(=O)OCc4ccccc4)c3)ccc21 | 45.2 µM |
| CCNC(=O)Nc1cc(Cl)cc(C(=O)Nc2cc(C)cc(CN)c2)c1 | 0.676 µM |
| O=C(Nc1cc(Cl)cc(S(=O)(=O)Nc2cccc(-c3nn[nH]n3)c2)c1)OCc1ccccc1 | > 99.5 µM |
| NCc1cc(C(=O)O)cc([C@@H]2C[C@H]2c2cc(Cl)cc(NC(=O)OCc3ccccc3)c2)c1 | > 99.5 µM |
| CCc1nc(C)c(C(=O)Nc2cccc(-c3nnn[nH]3)c2)s1 | > 99.5 µM |
| C[C@H](C(=O)O)c1cccc(NC(=O)c2cc(Cl)cc(NC(=O)OCc3ccccc3)c2)c1 | > 99.5 µM |
| C=CC[C@H](Nc1cc(Cl)cc(NC(=O)OCc2ccccc2)c1)c1cccc(-c2nn[nH]n2)c1 | 13.5 µM and 9.86 µM and 11 µM |
| O=C(Nc1cc(Cl)cc([C@H]2C[C@@H]2c2cccc(C3CCNCC3)c2)c1)OCc1ccccc1 | 2.64 µM |
| CCNC(=O)Nc1cc(Cl)cc(C(=O)Nc2ccc3c(c2)CNCCO3)c1 | 0.749 µM |
| C=CC[C@H](Nc1cc(CN)ccn1)c1cc(Cl)cc(NC(=O)OCc2ccccc2)c1 | > 99.5 µM |
| CNC(=O)[C@H](Nc1cccc(C(=O)O)c1)c1cc(Cl)cc2[nH]ncc12 | > 99.5 µM |
| CCNC(=O)Nc1cc(Cl)cc(C(=O)Nc2cccc(C3CCNCC3)c2)c1 | 19.9 µM |
| O=C(Nc1cc(Cl)cc([C@H](C#CCO)Nc2ccc(-c3nn[nH]n3)cc2)c1)OCc1ccccc1 | 22.7 µM |
| C#C[C@H](Nc1cccc(-c2nn[nH]n2)c1)c1cc(Cl)cc(NC(=O)OCc2ccccc2)c1 | 22.9 µM |
| Cc1c(C(=O)Nc2cc(F)cc(CN)c2)cc(C2CC2)n1C | 89.9 µM |
| Cc1c(C(=O)Nc2cccc(CN)c2)cc(C2CCC2)n1C | > 99.5 µM |
| Cc1c(C(=O)Nc2ccc(CN)cc2)cc(C2CC2)n1C | > 99.5 µM |
| CN1C[C@H](c2cccc(CN)c2)[C@@H](c2cc(Cl)cc(NC(=O)OCc3ccccc3)c2)C1 | > 99.5 µM |
| O=C(Nc1cc(Cl)cc(C(=O)N[C@H]2CCCC[C@@H]2C(=O)O)c1)OCc1ccccc1 | > 99.5 µM |
| Cc1c(C(=O)Nc2cc(CN)ccc2F)cc(C2CC2)n1C | > 99.5 µM |
| CNC(=O)[C@H](Nc1cc(Cl)cc(NC(=O)OCc2ccccc2)c1)c1cccc(-c2nn[nH]n2)c1 | > 99.5 µM |

| SMILES | IC50 |
| --- | --- |
| NCc1cccc([C@H](CCCO)Nc2cc(Cl)cc(NC(=O)OCc3ccccc3)c2)c1 | 27.4 µM |
| O=C(Nc1cc(Cl)cc([C@H]2C[C@@H]2c2ccc3c(c2)CNC3)c1)OCc1ccccc1 | 22.8 µM |
| CCNC(=O)Nc1cc(Cl)cc(C(=O)Nc2cc(CCCN)ccc2F)c1 | 6.17 µM |
| O=C(Nc1cc(Cl)cc(C(=O)Nc2cccc(C3(C(=O)O)CCC3)c2)c1)OCc1ccccc1 | 69 µM |
| O=C(Nc1cc(Cl)cc(C(=O)Nc2cc(-c3nnn[nH]3)ccc2F)c1)OCc1ccccc1 | 41.5 µM |
| CS(=O)(=O)NC(=O)c1cc(CN)cc([C@@H]2C[C@H]2c2cc(Cl)cc(NC(=O)OCc3ccccc3)c2)c1 | > 99.5 µM |
| N#C[C@H](Nc1ccc(-c2nn[nH]n2)cc1)c1cc(Cl)cc(NC(=O)OCc2ccccc2)c1 | 19.3 µM |
| NCc1ccc([C@H]2C[C@@H]2c2cc(Cl)cc(NC(=O)OCc3ccccc3)c2)cc1 | 5.12 µM |
| CCc1cc(C(=O)Nc2cccc(-c3nnn[nH]3)c2)sc1C | > 99.5 µM |
| CCNC(=O)Nc1cc(Cl)cc(C(=O)Nc2cccc(-n3nn[nH]c3=O)c2)c1 | > 99.5 µM |
| O=C(O)CCCc1cccc(NC(=O)c2cc(Cl)cc(NC(=O)OCc3ccccc3)c2)c1 | 84.3 µM |
| C=CC[C@H](Nc1cccc(-c2nn[nH]n2)c1)c1cc(Cl)cc(NC(=O)OCc2ccccc2)c1 | 9.32 µM |
| O=C(Nc1cc(Cl)cc(C(=O)N[C@H](c2nn[nH]n2)C2CCNCC2)c1)OCc1ccccc1 | > 99.5 µM |
| O=C(Nc1cc(Cl)cc(/C=C/c2cccc(-n3nn[nH]c3=O)c2)c1)OCc1ccccc1 | > 99.5 µM |
| O=C(Nc1cc(Cl)cc(S(=O)(=O)Nc2cccc(-n3nn[nH]c3=O)c2)c1)OCc1ccccc1 | > 99.5 µM |
| N#C[C@H](Nc1cccc(C(=O)O)c1)c1cc(Cl)cc2[nH]ncc12 | > 99.5 µM |
| O=C(O)CCc1cccc(NC(=O)c2cc(Cl)cc(NC(=O)OCc3ccccc3)c2)c1 | > 99.5 µM |
| NCc1cccc(N[C@H](CCCO)c2cc(Cl)cc(NC(=O)OCc3ccccc3)c2)c1 | 62.3 µM |
| COC(=O)c1cc(Cl)cc(S(=O)(=O)Nc2cccc(-c3nnn[nH]3)c2)c1F | > 99.5 µM |
| N#C[C@H](Nc1cc(Cl)cc(NC(=O)OCc2ccccc2)c1)c1ccc(-c2nn[nH]n2)cc1 | 16.8 µM |
| CNC(=O)C[C@H](Nc1cccc(F)n1)c1cc(Cl)cc(Br)c1 | > 99.5 µM |
| COc1c(C(N)=O)cc(Cl)cc1S(=O)(=O)Nc1cccc(-c2nnn[nH]2)c1 | > 99.5 µM |
| O=C(Nc1cc(Cl)cc(C(=O)Nc2ccc([C@@H]3C[C@H]3C(=O)O)cc2)c1)OCc1ccccc1 | 44.3 µM |
| CCc1cc(C(=O)Nc2cccc(-c3nnn[nH]3)c2)nn1-c1ccccc1 | > 99.5 µM |
